Results as given in US20240335431A1, “1-H-PYRROLO[2,3-c]PYRIDINE COMPOUNDS” (Acerta Pharma B.V., priority 2023, published 2024).

How the values were obtained:
[1] = molecular target: hERG (Homo sapiens (Human), UniProt Q12809); assay: hERG assay 1 (standard), SyncroPatch 384PE; assay type: cell-based; settings: CHO cells, room temperature, up to 40 uM
How it was run: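 Automated patch clamp on hERG-expressing CHO-K1 cells at room temperature, +60/−40 mV protocol every 15 s. Six-point cumulative concentrations 139 nM to 40 uM (0.33% DMSO final); IC50 from one-site fit of % inhibition. Wells required ≥30 MegaOhm seal, current >0.2 nA, Z prime >0.4.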

[2] = Human liver microsomes (HLMs) intrinsic clearance assay; assay type: in vitro ADME; settings: human, microsomes, pH 7.4, HLM CLint
[3] = Human hepatocyte intrinsic clearance assay; assay type: in vitro ADME; settings: human hepatocytes
How it was run: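 Pooled 10-donor cryopreserved human hepatocytes in suspension (0.25×10^6 cells in 0.25 mL) incubated with test compound at […], 37° C. Samples taken 0.5–120 min and quenched in acetonitrile, parent remaining measured by LC-MS/MS. CLint ([…]) derived from slope of ln % remaining vs time.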

hERG, sequence (Q12809 whole entry): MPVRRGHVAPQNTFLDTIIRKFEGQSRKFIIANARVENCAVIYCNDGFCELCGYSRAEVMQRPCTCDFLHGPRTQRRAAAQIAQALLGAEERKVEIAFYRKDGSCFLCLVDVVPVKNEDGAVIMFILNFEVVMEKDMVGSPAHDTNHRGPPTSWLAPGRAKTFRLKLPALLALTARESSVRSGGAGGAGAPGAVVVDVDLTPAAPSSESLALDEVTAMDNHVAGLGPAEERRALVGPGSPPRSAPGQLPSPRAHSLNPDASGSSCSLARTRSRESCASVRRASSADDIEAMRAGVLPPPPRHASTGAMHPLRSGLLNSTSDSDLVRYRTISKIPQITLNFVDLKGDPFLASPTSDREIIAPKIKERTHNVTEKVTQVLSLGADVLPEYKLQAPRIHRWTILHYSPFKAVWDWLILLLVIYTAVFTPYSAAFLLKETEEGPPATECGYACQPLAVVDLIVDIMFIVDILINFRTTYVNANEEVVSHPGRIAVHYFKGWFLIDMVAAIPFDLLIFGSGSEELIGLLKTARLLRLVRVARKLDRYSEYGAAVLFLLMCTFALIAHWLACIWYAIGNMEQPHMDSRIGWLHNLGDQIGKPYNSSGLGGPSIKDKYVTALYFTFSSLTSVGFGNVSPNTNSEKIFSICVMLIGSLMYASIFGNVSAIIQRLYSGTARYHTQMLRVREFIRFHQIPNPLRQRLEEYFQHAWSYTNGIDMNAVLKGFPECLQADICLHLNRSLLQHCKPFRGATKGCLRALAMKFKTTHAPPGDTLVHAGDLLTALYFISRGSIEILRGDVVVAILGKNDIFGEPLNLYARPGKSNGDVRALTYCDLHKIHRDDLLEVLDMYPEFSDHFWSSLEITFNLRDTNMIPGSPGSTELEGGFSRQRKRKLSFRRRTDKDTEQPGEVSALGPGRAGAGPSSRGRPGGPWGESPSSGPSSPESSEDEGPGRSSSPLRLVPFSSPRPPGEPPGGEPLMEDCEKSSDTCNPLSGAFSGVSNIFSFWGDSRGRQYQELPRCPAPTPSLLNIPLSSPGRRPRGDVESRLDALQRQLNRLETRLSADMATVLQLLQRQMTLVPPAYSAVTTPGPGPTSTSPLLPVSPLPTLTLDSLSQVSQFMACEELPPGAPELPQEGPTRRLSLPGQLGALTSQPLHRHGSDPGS

| microsomal CLint at 1 µM [2] | HH CLint [3] | SMILES | IC50 [1] |
| --- | --- | --- | --- |
| 131 µL/min/mg | <1.0 μl/min/1E6 | CC(C)c1ncccc1-c1cc(F)ccc1-n1cc(C(=O)C2CCN(C(=O)[C@H]3N[C@@H]4CC[C@H]3C4)CC2)c2ccncc21 [Example 38, (1-((1R,3S,4S)-2-Azabicyclo[2.2.1]heptane-3-carbonyl)piperidin-4-yl)(1-(4-fluoro-2-(2-isopropylpyridin-3-yl)phenyl)-1H-pyrrolo[2,3-c]pyridin-3-yl)methanone] | > 40 µM |
| 18 µL/min/mg | <1.0 μl/min/1E6 | O=C(c1cn(-c2ccc(F)cc2-c2cncnc2C2CC2)c2cnccc12)C1CCN(C(=O)[C@H]2N[C@@H]3CC[C@H]2C3)CC1 [Example 40, (1-((1R,3S,4S)-2-Azabicyclo[2.2.1]heptane-3-carbonyl)piperidin-4-yl)(1-(2-(4-cyclopropylpyrimidin-5-yl)-4-fluorophenyl)-1H-pyrrolo[2,3-c]pyridin-3-yl)methanone] | > 40 µM |
| 180 µL/min/mg | 1.7 μl/min/1E6 | CC(C)c1ccncc1-c1cc(F)ccc1-n1cc(C(=O)C2CCN(C(=O)[C@H]3N[C@@H]4CC[C@H]3C4)CC2)c2ccncc21 [Example 41, (1-((1R,3S,4S)-2-Azabicyclo[2.2.1]heptane-3-carbonyl)piperidin-4-yl)(1-(4-fluoro-2-(4-isopropylpyridin-3-yl)phenyl)-1H-pyrrolo[2,3-c]pyridin-3-yl)methanone] | > 40 µM |

The remaining lines, values behind:

| SMILES | microsomal CLint at 1 µM [2] | HH CLint [3] | IC50 [1] |
| --- | --- | --- | --- |
| CC(C)N(C(=O)c1cc(F)ccc1-n1cc(C(=O)C2CCN(C(=O)[C@@H]3CCC(C)(C)N3)CC2)c2ccncc21)C(C)C [Example 27, (S)-2-(3-(1-(5,5-Dimethylpyrrolidine-2-carbonyl)piperidine-4-carbonyl)-1H-pyrrolo[2,3-c]pyridin-1-yl)-5-fluoro-N,N-diisopropylbenzamide] | 46 µL/min/mg | <1.0 μl/min/1E6 | > 40 µM |
| CCN(C(=O)c1cc(F)ccc1-n1cc(C(=O)C2CCN(C(=O)[C@H]3NC[C@@H]4C[C@@H]43)CC2)c2ccncc21)C(C)C [Example 28, 2-(3-(1-((1S,2S,5R)-3-Azabicyclo[3.1.0]hexane-2-carbonyl)piperidine-4-carbonyl)-1H-pyrrolo[2,3-c]pyridin-1-yl)-N-ethyl-5-fluoro-N-isopropylbenzamide] | 41 µL/min/mg | <1.0 μl/min/1E6 | > 40 µM |
| CCN(C(=O)c1cc(F)ccc1-n1cc(C(=O)C2CCN(C(=O)[C@H]3N[C@@H]4CC[C@H]3C4)CC2)c2ccncc21)C(C)C [Example 31, 2-(3-(1-((1R,3S,4S)-2-Azabicyclo[2.2.1]heptane-3-carbonyl)piperidine-4-carbonyl)-1H-pyrrolo[2,3-c]pyridin-1-yl)-N-ethyl-5-fluoro-N-isopropylbenzamide] | 23 µL/min/mg | <1.0 μl/min/1E6 | > 40 µM |
| CC(C)n1nccc1-c1cc(F)ccc1-n1cc(C(=O)C2CCN(C(=O)[C@H]3N[C@@H]4CC[C@H]3C4)CC2)c2ccncc21 [Example 36, (1-((1R,3S,4S)-2-Azabicyclo[2.2.1]heptane-3-carbonyl)piperidin-4-yl)(1-(4-fluoro-2-(1-isopropyl-1H-pyrazol-5-yl)phenyl)-1H-pyrrolo[2,3-c]pyridin-3-yl)methanone] | 58 µL/min/mg | <1.0 μl/min/1E6 | > 40 µM |
| CC(C)c1ncncc1-c1cc(F)ccc1-n1cc(C(=O)C2CCN(C(=O)[C@H]3N[C@@H]4CC[C@H]3C4)CC2)c2ccncc21 [Example 37, (1-((1R,3S,4S)-2-Azabicyclo[2.2.1]heptane-3-carbonyl)piperidin-4-yl)(1-(4-fluoro-2-(4-isopropylpyrimidin-5-yl)phenyl)-1H-pyrrolo[2,3-c]pyridin-3-yl)methanone] | 52 µL/min/mg | <1.0 μl/min/1E6 | > 40 µM |
